Laboratory results taken from patent US20130252813A1, “Herbicidal Compositions for Tolerant or Resistant Sugar Beet Crops” (Bayer CropScience AG, priority 1998, published 2013).

Assays:
Assay type in all cases: in vivo
Galium aparine [1] = experiment: Herbicidal action in sugar beet crop (greenhouse experiment, Table 3); conditions: application in the 4-5-leaf stage, scoring 3 weeks after application
From the text: Seeds or rhizomes of monocotyledonous and dicotyledonous weeds are placed in sandy loam soil in cardboard pots, covered with soil and grown in the greenhouse under good growth conditions. […] The compositions according to the
Invention, which are formulated as wettable powders or as emulsion concentrates, are sprayed at various dosages onto the green plant organs at an application rate of 600 to 800 l of water per ha (converted). After the experimental plants have remained in the greenhouse for approx. 3 to 4 weeks under optimal growth conditions, the effect of the preparations is scored visually in comparison with untreated controls. The compositions according to the invention also have a good herbicidal activity against a broad spectrum of economically Important grass weeds and broad-leaved weeds when applied post-emergence.

transgenic sugar beet [2] = experiment: Damage to transgenic sugar beet (greenhouse experiment, Table 3); parameters: scale not given here; conditions: greenhouse Table 3, application in the 4-5-leaf stage
Echinochloa crus-galli = experiment: Herbicidal action and selectivity in sugar beet crop (field trial, Table 4); conditions: application in 3-leaf stage, scoring 4 weeks after application
Protocol: (§1) Transgenic sugar beet plants with resistance to one or more herbicides (A) were grown together with typical weed plants in the open in 2×5 m plots under natural field conditions; alternatively, the weed population established naturally while the sugar beet plants grew. Treatment with the compositions according to the invention and, for control purposes, with separate application of the active ingredients of the components alone, was carried out under standard conditions with a plot sprayer at an application rate of 200-300 liters of water per hectare in parallel trials in accordance with the scheme of Table 1, i.e. pre-sowing/pre-emergence, […] or post-emergence at the early, medium or late stage.
(§2) At 2, 4, 6 and 8 week intervals after application, the herbicidal activity of the active ingredients or active ingredient mixtures were scored visually by comparing the treated plots with untreated control plots. Damage and development of all aerial plant organs was recorded. The scoring was done using a percentage scale (100% activity=all plants dead; 50% activity=50% of the plants and green plant organs dead; 0% activity=no discernible effect=like control plot). The score values of in each case 4 plots were averaged.

transgenic sugar beet [3] = experiment: Damage to transgenic sugar beet (field trial, Table 4); conditions: application in 3-leaf stage
Protocol: as §1, §2

Setaria viridis = experiment: Herbicidal action in sugar beet - field trial (Table 2); conditions: application in 2-4-leaf stage, scoring 3 weeks after application
Protocol: as §1
[…] Damage and development of all aerial plant organs was recorded. The scoring was done using a percentage scale (100% activity=all plants dead; 50% activity=50% of the plants and green plant organs dead; 0% activity=no discernible effect=like control plot). The score values of in each case 4 plots were averaged.

transgenic sugar beet [4] = experiment: Damage to transgenic sugar beet - field trial (Table 2); conditions: application in 2-4-leaf stage
Protocol: as §1, §2

transgenic sugar beet [5] = experiment: Damage to transgenic sugar beet (field trial, Table 5); conditions: application in the 3-5-leaf stage
Protocol: as §1, §2

Avena fatua = experiment: Herbicidal action and selectivity in sugar beet crop (field trial, Table 5); conditions: application in the 3-5-leaf stage, scoring 4 weeks after application
Protocol: as §1, §2

Galium aparine [6] = experiment: Herbicidal action (field trial, Table 7); conditions: application in the 4-5-leaf stage, scoring 26 days after application
Protocol: as §1, §2

O=C(O)c1nc(Cl)ccc1Cl [(B2.4), 3,6-dichloropyridine-2-carboxylic acid] was tested, and the “Herbicidal action in % against Galium aparine” value (Galium aparine [1]; dose 50 g A.S./ha) was 5%, the “Herbicidal action in % against Galium aparine” value (Galium aparine [1]; dose 100 g A.S./ha) was 35% and the “Herbicidal action in % against Galium aparine” value (Galium aparine [1]; dose 200 g A.S./ha) was 45%. For the same compound, the “Damage to transgenic sugar beet” value (transgenic sugar beet [2]; dose 50 g A.S./ha) was 0, the “Damage to transgenic sugar beet” value (transgenic sugar beet [2]; dose 100 g A.S./ha) was 0 and the “Damage to transgenic sugar beet” value (transgenic sugar beet [2]; dose 200 g A.S./ha) was 0.
CCCC(=NOCC)C1=C(O)CC(C2CCCSC2)CC1=O (centres unmarked) [(B4.2), 2-(1-ethoxyiminobutyl)-3-hydroxy-5-thian-3-ylcyclohex-2-enone] was tested, and the “Herbicidal action in % against Echinochloa crus-galli” value (Echinochloa crus-galli; dose 62.5 g A.S./ha) was 45%, the “Herbicidal action in % against Echinochloa crus-galli” value (Echinochloa crus-galli; dose 125 g A.S./ha) was 70% and the “Herbicidal action in % against Echinochloa crus-galli” value (Echinochloa crus-galli; dose 250 g A.S./ha) was 93%. The “Damage to transgenic sugar beet” value (transgenic sugar beet [3]; dose 62.5 g A.S./ha) was 0, the “Damage to transgenic sugar beet” value (transgenic sugar beet [3]; dose 125 g A.S./ha) was 0 and the “Damage to transgenic sugar beet” value (transgenic sugar beet [3]; dose 250 g A.S./ha) was 0.
For CCC/C(=N\OCC)C1=C(O)CC(CC(C)SCC)CC1=O (centres unmarked) [(B4.1), (E,Z)-2-(1-ethoxyimino-butyl)-5-[2-(ethylthio)propyl]-3-hydroxycyclohex-2-enone], the “Herbicidal action in % against Echinochloa crus-galli” value (Echinochloa crus-galli; dose 105 g A.S./ha) was 35%, the “Herbicidal action in % against Echinochloa crus-galli” value (Echinochloa crus-galli; dose 210 g A.S./ha) was 73% and the “Herbicidal action in % against Echinochloa crus-galli” value (Echinochloa crus-galli; dose 315 g A.S./ha) was 85%. For the same compound, the “Damage to transgenic sugar beet” value (transgenic sugar beet [3]; dose 105 g A.S./ha) was 0, the “Damage to transgenic sugar beet” value (transgenic sugar beet [3]; dose 210 g A.S./ha) was 0 and the “Damage to transgenic sugar beet” value (transgenic sugar beet [3]; dose 315 g A.S./ha) was 0.
Cc1cccc(S(=O)(=O)NC(=O)Nc2nc(OCC(F)(F)F)nc(N(C)C)n2)c1C(=O)O [(B1.3)] was tested, and the “Herbicidal action in % against Setaria viridis” value (Setaria viridis; dose 8 g A.S./ha) was 0%, the “Herbicidal action in % against Setaria viridis” value (Setaria viridis; dose 17 g A.S./ha) was 20% and the “Damage to transgenic sugar beet” value (transgenic sugar beet [4]; dose 8 g A.S./ha) was 0. For the same compound, the “Damage to transgenic sugar beet” value (transgenic sugar beet [4]; dose 17 g A.S./ha) was 0.
With CCOC(=O)C(C)Oc1ccc(Oc2nc3ccc(Cl)cc3o2)cc1 (racemic) [(B3.2), fenoxaprop-ethyl (rac.)] the “Damage to transgenic sugar beet” value (transgenic sugar beet [5]; dose 15 g A.S./ha) was 0, the “Damage to transgenic sugar beet” value (transgenic sugar beet [5]; dose 30 g A.S./ha) was 0 and the “Damage to transgenic sugar beet” value (transgenic sugar beet [5]; dose 60 g A.S./ha) was 0. For the same compound, the “Herbicidal action in % against Avena fatua” value (Avena fatua; dose 15 g A.S./ha) was 20%, the “Herbicidal action in % against Avena fatua” value (Avena fatua; dose 30 g A.S./ha) was 60% and the “Herbicidal action in % against Avena fatua” value (Avena fatua; dose 60 g A.S./ha) was 85%.
With COC(=O)Nc1cccc(NC(=O)Oc2cccc(C)c2)c1 [(B2.2), 3-methylphenyl N-[3-(methoxycarbonylamino)phenyl]carbamate] the “Herbicidal action in % against Galium aparine” value (Galium aparine [6]; dose 500 g A.S./ha) was 20%, the “Herbicidal action in % against Galium aparine” value (Galium aparine [6]; dose 1000 g A.S./ha) was 30% and the “Herbicidal action in % against Galium aparine” value (Galium aparine [6]; dose 2000 g A.S./ha) was 30%. For the same compound, the “Herbicidal action in % against Galium aparine” value (Galium aparine [1]; dose 500 g A.S./ha) was 20%, the “Herbicidal action in % against Galium aparine” value (Galium aparine [1]; dose 1000 g A.S./ha) was 30% and the “Herbicidal action in % against Galium aparine” value (Galium aparine [1]; dose 2000 g A.S./ha) was 30%. For the same compound, the “Damage to transgenic sugar beet” value (transgenic sugar beet [2]; dose 500 g A.S./ha) was 0, the “Damage to transgenic sugar beet” value (transgenic sugar beet [2]; dose 1000 g A.S./ha) was 0 and the “Damage to transgenic sugar beet” value (transgenic sugar beet [2]; dose 2000 g A.S./ha) was 0.
In the case of CC(C)N.O=C(O)CNCP(=O)(O)O [(A2.2), monoisopropylammonlum salt of glyphosate], the “Herbicidal action in % against Galium aparine” value (Galium aparine [6]; dose 125 g A.S./ha) was 10%, the “Herbicidal action in % against Galium aparine” value (Galium aparine [6]; dose 250 g A.S./ha) was 40% and the “Herbicidal action in % against Galium aparine” value (Galium aparine [6]; dose 500 g A.S./ha) was 60%. The “Herbicidal action in % against Galium aparine” value (Galium aparine [6]; dose 1000 g A.S./ha) was 85%.
